Values quoted from earlier work as cited in patent publication US20070087333A1, “Method to detect antigen-specific cytolytic activity” (Erasmus Universiteit Rotterdam, priority 2004, published 2007).

How the values were obtained:
TCC-C10 CTL clone = details: NP418-426 epitope variants, 51Cr-release assay, reference [2]; read-out: EC50 value of the peptide variant (functional avidity)
TCC3180 CTL clone = details: NP418-426 epitope variants, 51Cr-release assay, reference [2]; for EC50: read-out: EC50 value of the peptide variant (functional avidity)

## NP01: HLA-B*3501 epitope NP418-426 peptide variant of influenza NP strain A/NL/18/94 (LPFEKSTVM; Derived from influenza virus genes encoding NP strain A/NL/18/94 (NP01))
TCC-C10 CTL clone
  EC50: ~0.8 nM
TCC3180 CTL clone
  EC50: 0.5 nM

## NP03: HLA-B*3501 epitope NP418-426 peptide variant of influenza NP strain A/PR/8/34 (LPFDRTTIM; Derived from influenza virus genes encoding NP strain A/PR/8/34 (NP03))
TCC-C10 CTL clone
  EC50: > 10000 nM
TCC3180 CTL clone
  EC50 value of the peptide variant (functional avidity): l lOO

## NP02: HLA-B*3501 epitope NP418-426 peptide variant of influenza NP strain A/HK/2/68 (LPFDKPTIM; Derived from influenza virus genes encoding NP strain A/HK/2/68 (NP02))
TCC-C10 CTL clone
  EC50: > 5000 nM
TCC3180 CTL clone
  EC50: 26 nM
